Assay results from PubChem BioAssay AID248 (DTP/NCI, 2004).
Where “and” joins values, the source holds several entries; their conditions need not be identical. Equal entries are not always repeated. Inconclusive results and toxic doses are left out.

Tested on: L1210 leukemia ip in BDF1 mice, survival T/C
Assay: NCI In Vivo Anticancer Drug Screen. Data for tumor model L1210 Leukemia (intraperitoneal) in B6D2F1 (BDF1) mice
Details: higher = longer survival
Summary of the method: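 Tumor was transplanted into mice, which were then dosed with test compound or vehicle alone. Survival was recorded for each group, and the treated figure was expressed relative to the control figure.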

Compound: CCO/C=N/NC(=O)CNC(=O)C=[N+]=[N-]
- T/C (endpoint: mean survival time, dose: 180.0 mg/kg/injection, schedule: Q01DX001 (ip), vehicle: water): 100 % of control and 116 % of control
- T/C (endpoint: mean survival time, dose: 270.0 mg/kg/injection, schedule: Q01DX001 (ip), vehicle: water): 101 % of control and 117 % of control
- T/C (endpoint: mean survival time, dose: 400.0 mg/kg/injection, schedule: Q01DX001 (ip), vehicle: water): 105 % of control and 117 % of control
- T/C (endpoint: mean survival time, dose: 600.0 mg/kg/injection, schedule: Q01DX001 (ip), vehicle: water): 106 % of control and 111 % of control

Compound: O=NN(CCCl)C(=O)NC1CCC(=O)NC1=O (configuration not stated)
- T/C (endpoint: mean survival time, dose: 0.5 mg/kg/injection, schedule: Q01DX001 (ip), vehicle: other): 104 % of control
- T/C (endpoint: mean survival time, dose: 1.0 mg/kg/injection, schedule: Q01DX001 (ip), vehicle: other): 106 % of control
- T/C (endpoint: mean survival time, dose: 2.0 mg/kg/injection, schedule: Q01DX001 (ip), vehicle: other): 118 % of control
- T/C (endpoint: mean survival time, dose: 5.5 mg/kg/injection, schedule: Q01DX001 (ip), vehicle: other): 172 % of control
- T/C (endpoint: mean survival time, dose: 6.0 mg/kg/injection, schedule: Q01DX001 (ip), vehicle: other): 203 % of control
- T/C (endpoint: mean survival time, dose: 8.0 mg/kg/injection, schedule: Q01DX001 (ip), vehicle: other): 246 % of control
- T/C (endpoint: mean survival time, dose: 11.0 mg/kg/injection, schedule: Q01DX001 (ip), vehicle: other): 300 % of control
- T/C (endpoint: mean survival time, dose: 12.0 mg/kg/injection, schedule: Q01DX001 (ip), vehicle: other): 292 % of control
- T/C (endpoint: mean survival time, dose: 16.0 mg/kg/injection, schedule: Q01DX001 (ip), vehicle: other): 315 % of control and 326 % of control
- T/C (endpoint: mean survival time, dose: 22.0 mg/kg/injection, schedule: Q01DX001 (ip), vehicle: other): 340 % of control
- T/C (endpoint: mean survival time, dose: 24.0 mg/kg/injection, schedule: Q01DX001 (ip), vehicle: other): 220 % of control
- T/C (endpoint: mean survival time, dose: 33.0 mg/kg/injection, schedule: Q01DX001 (ip), vehicle: other): 340 % of control
- T/C (endpoint: mean survival time, dose: 36.0 mg/kg/injection, schedule: Q01DX001 (ip), vehicle: other): 93 % of control
- T/C (endpoint: mean survival time, dose: 44.0 mg/kg/injection, schedule: Q01DX001 (ip), vehicle: other): 295 % of control
- T/C (endpoint: median survival time, dose: 0.63 mg/kg/injection, schedule: Q01DX001 (ip), vehicle: other): 106 % of control
- T/C (endpoint: median survival time, dose: 0.63 mg/kg/injection, schedule: Q01DX001 (ip), vehicle: saline): 110 % of control
- T/C (endpoint: median survival time, dose: 0.63 mg/kg/injection, schedule: Q01DX001 (iv), vehicle: other): 103 % of control
- T/C (endpoint: median survival time, dose: 0.63 mg/kg/injection, schedule: Q01DX001 (iv), vehicle: saline): 108 % of control
- T/C (endpoint: median survival time, dose: 1.25 mg/kg/injection, schedule: Q01DX001 (ip), vehicle: other): 116 % of control
- T/C (endpoint: median survival time, dose: 1.25 mg/kg/injection, schedule: Q01DX001 (ip), vehicle: saline): 120 % of control
- T/C (endpoint: median survival time, dose: 1.25 mg/kg/injection, schedule: Q01DX001 (iv), vehicle: other): 118 % of control
- T/C (endpoint: median survival time, dose: 1.25 mg/kg/injection, schedule: Q01DX001 (iv), vehicle: saline): 106 % of control
- T/C (endpoint: median survival time, dose: 2.5 mg/kg/injection, schedule: Q01DX001 (iv), vehicle: other): 122 % of control
- T/C (endpoint: median survival time, dose: 2.5 mg/kg/injection, schedule: Q01DX001 (iv), vehicle: saline): 118 % of control
- T/C (endpoint: median survival time, dose: 5.0 mg/kg/injection, schedule: Q01DX001 (ip), vehicle: other): 227 % of control
- T/C (endpoint: median survival time, dose: 5.0 mg/kg/injection, schedule: Q01DX001 (ip), vehicle: saline): 193 % of control
- T/C (endpoint: median survival time, dose: 5.0 mg/kg/injection, schedule: Q01DX001 (iv), vehicle: other): 151 % of control
- T/C (endpoint: median survival time, dose: 5.0 mg/kg/injection, schedule: Q01DX001 (iv), vehicle: saline): 150 % of control
- T/C (endpoint: median survival time, dose: 10.0 mg/kg/injection, schedule: Q01DX001 (ip), vehicle: other): 600 % of control
- T/C (endpoint: median survival time, dose: 10.0 mg/kg/injection, schedule: Q01DX001 (ip), vehicle: saline): 598 % of control
- T/C (endpoint: median survival time, dose: 10.0 mg/kg/injection, schedule: Q01DX001 (iv), vehicle: other): 290 % of control
- T/C (endpoint: median survival time, dose: 10.0 mg/kg/injection, schedule: Q01DX001 (iv), vehicle: saline): 253 % of control
- T/C (endpoint: median survival time, dose: 20.0 mg/kg/injection, schedule: Q01DX001 (ip), vehicle: other): 550 % of control
- T/C (endpoint: median survival time, dose: 20.0 mg/kg/injection, schedule: Q01DX001 (ip), vehicle: saline): 596 % of control
- T/C (endpoint: median survival time, dose: 20.0 mg/kg/injection, schedule: Q01DX001 (iv), vehicle: other): 599 % of control
- T/C (endpoint: median survival time, dose: 20.0 mg/kg/injection, schedule: Q01DX001 (iv), vehicle: saline): 600 % of control
- T/C (endpoint: median survival time, dose: 40.0 mg/kg/injection, schedule: Q01DX001 (ip), vehicle: other): 101 % of control
- T/C (endpoint: median survival time, dose: 40.0 mg/kg/injection, schedule: Q01DX001 (ip), vehicle: saline): 104 % of control
